pIC50: −log10 of the molar value.
Columns and labels:
[1] = biological target: T1, influenza A RNA-dependent RNA polymerase (Influenza A virus, UniProt P03428+P03431+P03433); test: cell-based
[2] = test system: constitutive gene expression; test: Counter screen: separate reporter system with cell death-activated reporter construct (constitutive gene expression); details: for toxicity in antiviral and counterscreen assays: at 50uM, both antiviral and counterscreen assay; for observed toxicity or efficacy in either assay tested: antiviral and counterscreen assay
[3] = test system: influenza A/Puerto Rico/8/34 (H1N1) virus; type: cell-based
[4] = biological target: T1, influenza A RNA-dependent RNA polymerase

Row | SMILES | pIC50 [1] | toxicity in antiviral and counterscreen assays [2] | observed toxicity or efficacy in either assay tested [2] | concentrations with significant antiviral activity [3] [µM] | toxicity in the reporter assay [4]
1 | CCc1c(C)nc2cc(-c3ccc(F)cc3)nn2c1NCCc1ccccn1 [A0436, 6-ethyl-2-(4-fluorophenyl)-5-methyl-N-(2-(pyridin-2-yl)ethyl)pyrazolo[1,5-a]pyrimidin-7-amine] | < 5.00 | >10uM (toxic to both antiviral and counterscreen at 50uM) | – | – | –
2 | Cc1ccc(-c2cc3nc4c(c(NCCc5ccccn5)n3n2)CCC4)cc1 [A0437, N-(2-(pyridin-2-yl)ethyl)-2-p-tolyl-6,7-dihydro-5H-cyclopenta[d]pyrazolo[1,5-a]pyrimidin-8-amine] | < 4.30 | – | >50 µM (no observed toxicity or efficacy in either assay tested) | – | –
3 | CCc1c(C)nc2cc(-c3ccc(OC)c(OC)c3)nn2c1NCCc1ccc(OC)c(OC)c1 [A0438, N-(3,4-dimethoxyphenethyl)-2-(3,4-dimethoxyphenyl)-6-ethyl-5-methylpyrazolo[1,5-a]pyrimidin-7-amine] | < 5.00 | >10uM (toxic to both antiviral and counterscreen at 50uM) | – | – | –
4 | CCc1c(C)nc2cc(-c3ccc(OC)c(OC)c3)nn2c1NCCc1ccccc1C [A0439, 2-(3,4-dimethoxyphenyl)-6-ethyl-5-methyl-N-[2(2-methylphenyl)ethyl]pyrazolo[1,5-a]pyrimidin-7-amine] | ~5.30 | – | – | > 7.5 | increased toxicity at higher doses due to precipitation
5 | CCc1c(C)nc2cc(-c3ccc(OC)c(OC)c3)nn2c1NCCc1ccc(F)cc1 [A0440, 2-(3,4-dimethoxyphenyl)-6-ethyl-N-(4-fluorophenethyl)-5-methylpyrazolo[1,5-a]pyrimidin-7-amine] | < 4.30 | – | >50 µM (no observed toxicity or efficacy in either assay tested) | – | –
6 | Fc1ccc(-c2cc3nc4c(c(NCCc5ccccn5)n3n2)CCCC4)cc1 [A0441, 2-(4-fluorophenyl)-N-(2-(pyridin-2-yl)ethyl)-5,6,7,8-tetrahydropyrazolo[5,1-b]quinazolin-9-amine] | < 5.00 | >10uM (toxic to both antiviral and counterscreen at 50uM) | – | – | –
7 | Clc1ccc(-c2cc3nc4c(c(NCCc5ccccn5)n3n2)CCCC4)cc1 [A0442, 2-(4-chlorophenyl)-N-(2-(pyridin-2-yl)ethyl)-5,6,7,8-tetrahydropyrazolo[5,1-b]quinazolin-9-amine] | < 5.00 | >10uM (toxic to both antiviral and counterscreen at 50uM) | – | – | –
8 | COc1ccc(-c2cc3nc(C)c(C)c(N4CCCC4)n3n2)cc1OC [A0443, 2-(3,4-dimethoxyphenyl)-5,6-dimethyl-7-(pyrrolidin-1-yl)pyrazolo[1,5-a]pyrimidine] | < 4.30 | – | >50 µM (no observed toxicity or efficacy in either assay tested) | – | –
9 | COc1ccc(-c2cc3nc4c(c(NCCc5cccnc5)n3n2)CCC4)cc1OC [A0444, 2-(3,4-dimethoxyphenyl)-N-(2-(pyridin-3-yl)ethyl)-6,7-dihydro-5H-cyclopenta[d]pyrazolo[1,5-a]pyrimidin-8-amine] | < 5.00 | >10uM (toxic to both antiviral and counterscreen at 50uM) | – | – | –
10 | CCc1c(C)nc2cc(-c3cc(C)on3)nn2c1NCCc1ccccn1 [A0445, 6-ethyl-5-methyl-2-(5-methylisoxazol-3-yl)-N-(2-(pyridin-2-yl)ethyl)pyrazolo[1,5-a]pyrimidin-7-amine] | < 4.30 | – | >50 µM (no observed toxicity or efficacy in either assay tested) | – | –
11 | COc1cc(OC)cc(-c2cc3nc(C)cc(NCC(C)c4ccccc4)n3n2)c1 (stereo not drawn) [A0525, 2-(3,5-dimethoxyphenyl)-5-methyl-N-(2-phenylpropyl)pyrazolo[1,5-a]pyrimidin-7-amine] | < 4.30 | – | >50 µM (no observed toxicity or efficacy in either assay tested) | – | –
12 | CCc1c(C)nc2cc(-c3ccc(OC)c(OC)c3)nn2c1NCc1cc(OC)ccc1OC [A0526, N-(2,5-dimethoxybenzyl)-2-(3,4-dimethoxyphenyl)-6-ethyl-5-methylpyrazolo[1,5-a]pyrimidin-7-amine] | < 4.30 | – | >50 µM (no observed toxicity or efficacy in either assay tested) | – | –
13 | CCc1c(C)nc2cc(-c3cc(OC)cc(OC)c3)nn2c1NCCc1ccccc1 [A0527, 2-(3,5-dimethoxyphenyl)-6-ethyl-5-methyl-N-phenethylpyrazolo[1,5-a]pyrimidin-7-amine] | < 4.30 | – | >50 µM (no observed toxicity or efficacy in either assay tested) | – | –
14 | COc1ccc(-c2cc3nc(-c4ccccc4)cc(NCc4ccccc4C)n3n2)cc1OC [A0528, 2-(3,4-dimethoxyphenyl)-N-(2-methylbenzyl)-5-phenylpyrazolo[1,5-a]pyrimidin-7-amine] | < 4.30 | – | >50 µM (no observed toxicity or efficacy in either assay tested) | – | –
15 | COc1ccc(-c2cc3nc4c(c(NCc5ccccc5F)n3n2)CCCC4)cc1 [A0529, N-(2-fluorobenzyl)-2-(4-methoxyphenyl)-5,6,7,8-tetrahydropyrazolo[5,1-b]quinazolin-9-amine] | < 4.30 | – | >50 µM (no observed toxicity or efficacy in either assay tested) | – | –
16 | COc1ccc(-c2cc3nc(C)cc(NCc4ccc5c(c4)OCO5)n3n2)cc1 [A0530, N-(benzo[d][1,3]dioxol-5-ylmethyl)-2-(4-methoxyphenyl)-5-methylpyrazolo[1,5-a]pyrimidin-7-amine] | < 4.30 | – | >50 µM (no observed toxicity or efficacy in either assay tested) | – | –
17 | Cc1cc(NC(CO)C(O)c2ccccc2)n2nc(-c3cccc(F)c3)cc2n1 (stereo not drawn) [A0531, 2-(2-(3-fluorophenyl)-5-methylpyrazolo[1,5-a]pyrimidin-7-ylamino)-1-phenylpropane-1,3-diol] | < 4.30 | – | >50 µM (no observed toxicity or efficacy in either assay tested) | – | –
18 | Cc1cc(NCC(O)c2cccc(O)c2)n2nc(-c3cccc(F)c3)cc2n1 (stereo not drawn) [A0532, 3-(2-(2-(3-fluorophenyl)-5-methylpyrazolo[1,5-a]pyrimidin-7-ylamino)-1-hydroxyethyl)phenol] | < 4.30 | – | >50 µM (no observed toxicity or efficacy in either assay tested) | – | –
19 | COc1ccc(-c2cc3nccc(NCc4ccccc4OC)n3n2)cc1 [A0547, N-(2-methoxybenzyl)-2-(4-methoxyphenyl)pyrazolo[1,5-a]pyrimidin-7-amine] | < 4.30 | – | >50 µM (no observed toxicity or efficacy in either assay tested) | – | –
20 | COc1ccc(-c2cc3nc(C)cc(NCc4ccccc4)n3n2)cc1 [A0548, N-benzyl-2-(4-methoxyphenyl)-5-methylpyrazolo[1,5-a]pyrimidin-7-amine] | < 4.30 | – | >50 µM (no observed toxicity or efficacy in either assay tested) | – | –
21 | COc1ccc(-c2c(C)nn3c(NCC(C)c4ccccc4)cc(C)nc23)cc1OC (stereo not drawn) [A0549, 3-(3,4-dimethoxyphenyl)-2,5-dimethyl-N-(2-phenylpropyl)pyrazolo[1,5-a]pyrimidin-7-amine] | < 4.30 | – | >50 µM (no observed toxicity or efficacy in either assay tested) | – | –
22 | COc1ccc(-c2c(C)nn3c(N4CCc5ccccc5C4)cc(C)nc23)cc1OC [A0550, 2-(3-(3,4-dimethoxyphenyl)-2,5-dimethylpyrazolo[1,5-a]pyrimidin-7-yl)-1,2,3,4-tetrahydroisoquinoline] | < 4.30 | – | >50 µM (no observed toxicity or efficacy in either assay tested) | – | –
23 | COc1ccc(-c2cc3c(=O)[nH]nc(SCc4ccc5c(c4)OCO5)n3n2)cc1OC [A0551, 7-(benzo[d][1,3]dioxol-5-ylmethylthio)-2-(3,4-dimethoxyphenyl)pyrazolo[1,5-d][1,2,4]triazin-4(5H)-one] | < 4.30 | – | >50 µM (no observed toxicity or efficacy in either assay tested) | – | –
24 | CCOc1ccc(-c2cc3c(SCc4cccc(C)c4)nccn3n2)cc1 [A0552, 2-(4-ethoxyphenyl)-4-(3-methylbenzylthio)pyrazolo[1,5-a]pyrazine] | < 4.30 | – | >50 µM (no observed toxicity or efficacy in either assay tested) | – | –
25 | COc1ccc(-c2cc3c(=O)[nH]nc(SCc4ccccc4Cl)n3n2)cc1OC [A0553, 7-(2-chlorobenzylthio)-2-(3,4-dimethoxyphenyl)pyrazolo[1,5-d][1,2,4]triazin-4(5H)-one] | < 4.30 | – | >50 µM (no observed toxicity or efficacy in either assay tested) | – | –

— patent publication EP3079693B1 (priority 2013, dated 2015)
